Measurements: US9938245B2 (THE TRUSTEES OF COLUMBIA UNIVERSITY IN THE CITY OF NEW YORK, priority 2014, dated 2018)

Legend:
BJeLR = experiment: Concentration-dependent growth inhibition (alamar blue), isogenic BJ cell lines; type: cell-based, human
system xc− = target: T1, system xc− (Homo sapiens, UniProt Q9UPY5); experiment: Glutamate release assay (system xc− activity); settings: read-out: IC50 glutamate release; CCF-STTG1 human astrocytoma cells, 2 hour incubation
T1 sequence (Q9UPY5 1-501): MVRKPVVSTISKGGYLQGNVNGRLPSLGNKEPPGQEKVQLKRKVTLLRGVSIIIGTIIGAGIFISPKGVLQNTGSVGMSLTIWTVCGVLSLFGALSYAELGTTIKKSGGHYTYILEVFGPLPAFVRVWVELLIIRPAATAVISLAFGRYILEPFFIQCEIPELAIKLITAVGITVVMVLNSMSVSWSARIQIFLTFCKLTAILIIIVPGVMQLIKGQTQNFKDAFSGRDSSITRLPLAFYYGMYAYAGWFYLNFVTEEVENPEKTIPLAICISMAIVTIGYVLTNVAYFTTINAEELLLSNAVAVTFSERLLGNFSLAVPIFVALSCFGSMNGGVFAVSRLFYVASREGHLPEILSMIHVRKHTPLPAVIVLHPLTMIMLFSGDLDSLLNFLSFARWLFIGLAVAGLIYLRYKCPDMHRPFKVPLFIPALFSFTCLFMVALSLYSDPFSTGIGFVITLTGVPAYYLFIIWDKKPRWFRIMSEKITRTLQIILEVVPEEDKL
T1 sequence (P08195 1-529 partner): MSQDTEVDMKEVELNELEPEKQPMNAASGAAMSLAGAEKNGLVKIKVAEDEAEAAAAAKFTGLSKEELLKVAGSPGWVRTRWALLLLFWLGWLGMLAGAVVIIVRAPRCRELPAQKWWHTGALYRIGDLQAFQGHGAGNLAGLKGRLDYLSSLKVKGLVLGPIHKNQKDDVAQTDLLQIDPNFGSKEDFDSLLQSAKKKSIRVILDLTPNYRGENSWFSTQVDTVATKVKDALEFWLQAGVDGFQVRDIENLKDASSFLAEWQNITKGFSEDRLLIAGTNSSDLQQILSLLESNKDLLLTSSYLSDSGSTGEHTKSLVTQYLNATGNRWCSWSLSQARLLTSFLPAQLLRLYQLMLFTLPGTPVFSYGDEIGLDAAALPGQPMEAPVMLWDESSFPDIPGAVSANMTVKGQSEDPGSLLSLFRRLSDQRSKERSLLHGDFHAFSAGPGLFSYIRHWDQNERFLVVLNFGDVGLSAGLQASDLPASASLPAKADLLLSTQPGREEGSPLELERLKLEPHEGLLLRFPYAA

HT1080 = experiment: Concentration-dependent growth inhibition (alamar blue), HT1080; type: cell-based, human; settings: 2 days
Procedure: Assay plates were prepared by seeding either BJ-derived cell lines or HT-1080 cells at 1,500 cells per well concentration in 36 μL growth medium. Cells in the assay plates were treated with compounds by transferring 4 μL volume from the compound plate. The final concentration of compound was typically 30 μM to 0.9 nM in this 16-point, 2-fold dilution series. Assay plates were returned to the culture incubator and maintained for 2 days before adding alamar blue. […] Plates were incubated further for 16 hours to allow reduction of alamar blue, which results in the generation of red fluorescence. The fluorescence intensity was determined using a Victor 3 plate reader (Perkin Elmer) with a 535 nm excitation filter and a 590 nm emission filter.
Percent growth inhibition (% GI) was calculated from the following formula using the alamar blue fluorescence intensity values. % GI=100*(1−(X−N)/(P−N)) X, cells treated with lethal compound; N, no cells—growth media only; P, no lethal compound—cells only.
The concentration-dependent curves were generated using Prism software. Percent growth inhibition, measured using alamar blue is shown. Error bars indicate one standard deviation of triplicate data.
The results are shown in FIG. 17 and in Table 7 below.

HT-1080 tumor = HT-1080 tumor formation, mouse xenograft model; type: in vivo, athymic nude mice; settings: PE 40 mg/kg SC then 30 mg/kg tail vein; erastin SC
Procedure: The images show representative tumors in live mice from each treatment group.
Athymic nude mice (8 weeks, Charles River) were injected with 4 million HT-1080 cells subcutaneously (SC). […] Two days later, the SC injection was repeated. Three days later, […] of vehicle or 30 mg/kg PE were administered to the mice through a tail vein. The tail vein injection was repeated three times more, once every other day, before the final tumor size was measured in both groups.
Instead, erastin was injected through the SC route using the same schedule as PE until the tumor size was measured.

[1] = tested on: BJeH, BJeHLT, BJeLR, and DRD; experiment: RSL testing in 4 BJ-derived cell lines; type: cell-based, human
[2] = mouse
HT-1080 cells = experiment: Modulatory profiling with lethal molecules and cell death modulators; type: cell-based, human

CC(C)Oc1ccc(CN2CCNCC2)cc1-n1c(CN2CCN(C(=O)COc3ccc(Cl)cc3)CC2)nc2ccccc2c1=O [PE, piperazine erastin]
Selectivity (IC50BJeH/IC50BJeLR) (BJeLR): 3
IC50 (BJeLR; 2 days, alamar blue): 300 nM
IC50 (system xc−): 800 nM
IC50 (HT1080): 1200 nM
preventing HT-1080 tumor formation (HT-1080 tumor): improved efficacy over erastinin (ERA)
RSL phenotype (selective lethality in oncogenic-RAS cells) [1]: retained the RSL phenotype
Half-life in liver microsomes [2]: 55 min
form of cell death (modulatory profile) (HT-1080 cells): induced a similar form of cell death as erastin
